Common to all, as to test: Enzyme Inhibition Assay
Test [1] concerns the target T1, Interstitial collagenase (Homo sapiens, UniProt P03956).
T1 sequence (P03956 whole entry): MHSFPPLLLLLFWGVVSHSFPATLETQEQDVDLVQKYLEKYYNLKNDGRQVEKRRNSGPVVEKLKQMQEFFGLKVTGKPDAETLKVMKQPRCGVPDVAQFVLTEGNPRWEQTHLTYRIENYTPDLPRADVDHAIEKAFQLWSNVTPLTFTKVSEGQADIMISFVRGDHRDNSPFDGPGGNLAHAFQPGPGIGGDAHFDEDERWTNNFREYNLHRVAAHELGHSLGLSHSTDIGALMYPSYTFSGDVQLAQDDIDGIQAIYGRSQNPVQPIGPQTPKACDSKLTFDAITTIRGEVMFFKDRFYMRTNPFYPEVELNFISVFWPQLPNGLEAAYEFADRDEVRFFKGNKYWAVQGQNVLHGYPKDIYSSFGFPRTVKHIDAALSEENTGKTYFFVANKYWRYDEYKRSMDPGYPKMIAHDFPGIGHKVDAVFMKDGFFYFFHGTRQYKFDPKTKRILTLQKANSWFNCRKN
As to the method:
(§1) Inhibitors were assayed against purified hMMP-1, hMMP-2, hMMP-3, hMMP-8, hMMP-9, and hMMP-13 using an enzyme assay based on cleavage of the quenched fluorogenic peptide substrate. The increase in fluorescence due to cleavage of the substrate was measured with a fluorescence microplate reader. The Ki values were calculated by nonlinear regression analysis using the percent inhibition, and Km values of the substrates for each MMP.

Test [2] addresses Stromelysin-1 (Homo sapiens, UniProt P08254). As to the method: as §1
The target in test [3] is Neutrophil collagenase (Homo sapiens, UniProt P22894). The method, then:
as §1

In test [4] the target is Matrix metalloproteinase-9 (Homo sapiens, UniProt P14780). The method, then:
as §1

Test [5] has as its target 72 kDa type IV collagenase (Homo sapiens, UniProt P08253). As to the method:
as §1

The target of test [6] is Collagenase 3 (Homo sapiens, UniProt P45452). The method, then:
as §1

Structures are written as SMILES. pKi: −log10 of the molar value. Where a name gives a salt, the structure may show the parent alone.

Neutrophil collagenase, sequence (P22894 whole entry): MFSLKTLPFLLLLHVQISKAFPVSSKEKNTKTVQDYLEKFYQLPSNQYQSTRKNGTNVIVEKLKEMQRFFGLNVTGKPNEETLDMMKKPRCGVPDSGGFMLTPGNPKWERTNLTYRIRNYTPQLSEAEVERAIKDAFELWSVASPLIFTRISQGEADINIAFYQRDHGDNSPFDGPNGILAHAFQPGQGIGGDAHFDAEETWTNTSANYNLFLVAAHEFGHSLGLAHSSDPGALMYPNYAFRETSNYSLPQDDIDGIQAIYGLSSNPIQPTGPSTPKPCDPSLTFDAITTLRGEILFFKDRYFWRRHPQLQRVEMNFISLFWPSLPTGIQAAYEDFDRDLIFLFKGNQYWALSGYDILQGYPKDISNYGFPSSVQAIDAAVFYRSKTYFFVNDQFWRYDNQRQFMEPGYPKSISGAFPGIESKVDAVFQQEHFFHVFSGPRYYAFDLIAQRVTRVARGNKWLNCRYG
Matrix metalloproteinase-9, sequence (P14780 whole entry): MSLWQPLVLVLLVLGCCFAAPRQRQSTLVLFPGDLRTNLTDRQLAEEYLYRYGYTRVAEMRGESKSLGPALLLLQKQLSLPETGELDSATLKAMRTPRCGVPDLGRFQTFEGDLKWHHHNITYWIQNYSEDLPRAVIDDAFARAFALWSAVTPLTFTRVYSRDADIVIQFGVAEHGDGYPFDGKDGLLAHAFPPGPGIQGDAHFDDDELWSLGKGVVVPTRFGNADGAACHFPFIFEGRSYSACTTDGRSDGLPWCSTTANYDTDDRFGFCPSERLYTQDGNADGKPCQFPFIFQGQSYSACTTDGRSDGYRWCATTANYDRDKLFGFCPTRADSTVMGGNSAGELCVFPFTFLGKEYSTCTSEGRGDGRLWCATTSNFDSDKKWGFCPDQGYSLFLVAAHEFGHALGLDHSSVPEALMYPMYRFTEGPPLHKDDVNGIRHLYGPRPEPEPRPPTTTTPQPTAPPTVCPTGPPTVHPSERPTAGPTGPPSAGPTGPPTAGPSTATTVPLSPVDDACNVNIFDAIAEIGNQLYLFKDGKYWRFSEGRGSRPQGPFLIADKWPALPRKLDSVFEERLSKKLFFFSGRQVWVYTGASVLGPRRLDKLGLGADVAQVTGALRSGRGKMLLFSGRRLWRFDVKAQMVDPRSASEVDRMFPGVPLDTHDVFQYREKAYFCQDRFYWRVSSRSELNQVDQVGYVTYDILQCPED
72 kDa type IV collagenase, sequence (P08253 whole entry): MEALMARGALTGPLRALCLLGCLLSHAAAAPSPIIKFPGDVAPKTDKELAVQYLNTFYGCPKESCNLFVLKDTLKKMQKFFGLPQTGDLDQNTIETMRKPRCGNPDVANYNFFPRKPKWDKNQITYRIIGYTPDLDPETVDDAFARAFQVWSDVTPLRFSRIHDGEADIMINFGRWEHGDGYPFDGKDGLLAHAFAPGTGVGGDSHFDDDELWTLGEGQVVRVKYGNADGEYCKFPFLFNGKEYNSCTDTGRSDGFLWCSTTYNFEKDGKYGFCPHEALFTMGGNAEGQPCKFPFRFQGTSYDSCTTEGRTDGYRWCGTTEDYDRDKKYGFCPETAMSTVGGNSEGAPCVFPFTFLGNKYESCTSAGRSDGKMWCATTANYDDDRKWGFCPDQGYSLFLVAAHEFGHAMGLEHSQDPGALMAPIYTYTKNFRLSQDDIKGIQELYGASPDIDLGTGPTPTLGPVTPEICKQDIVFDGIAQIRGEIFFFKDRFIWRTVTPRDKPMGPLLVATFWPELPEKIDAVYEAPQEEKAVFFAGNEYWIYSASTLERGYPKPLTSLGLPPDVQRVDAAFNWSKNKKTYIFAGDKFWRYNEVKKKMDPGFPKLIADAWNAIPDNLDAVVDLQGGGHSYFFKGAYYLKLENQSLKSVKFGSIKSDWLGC
Stromelysin-1, sequence (P08254 whole entry): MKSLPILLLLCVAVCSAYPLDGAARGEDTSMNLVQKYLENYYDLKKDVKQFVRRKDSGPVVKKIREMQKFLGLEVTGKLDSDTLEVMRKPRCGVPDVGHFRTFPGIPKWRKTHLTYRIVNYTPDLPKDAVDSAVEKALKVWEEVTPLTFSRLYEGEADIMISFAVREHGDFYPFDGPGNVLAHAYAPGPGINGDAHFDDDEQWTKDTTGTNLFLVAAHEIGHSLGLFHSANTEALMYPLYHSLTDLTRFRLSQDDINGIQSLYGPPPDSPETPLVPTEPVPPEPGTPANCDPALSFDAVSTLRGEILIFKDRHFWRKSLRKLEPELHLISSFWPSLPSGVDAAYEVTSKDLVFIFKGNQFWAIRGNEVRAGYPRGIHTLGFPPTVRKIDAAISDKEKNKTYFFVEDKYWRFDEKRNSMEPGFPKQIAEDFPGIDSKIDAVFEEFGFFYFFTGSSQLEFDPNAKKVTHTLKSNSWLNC

By pKi is commonly meant −log10 of the Ki, conventionally taken in molar units. Consider `O=C(NO)C1(CS(=O)(=O)c2ccc(Oc3ccc(Cl)cc3)cc2)CCOCC1`, for which the pKi in test [1] (pH 7.5, 25 °C) is 6.10; in test [2], 7.76; in test [3], 8.74.
Turning to `O=C(NO)C1(CS(=O)(=O)c2ccc(Oc3ccccc3)cc2)CCN(CCc2ccccc2)CC1`, the pKi in test [4] was 8.05; in test [1] (pH 7.5, 25 °C), 6.15; in test [2], 7.37; in test [5], 9.52; in test [3] it was 8.52.
With `C#CCN1CCC(CS(=O)(=O)c2ccc(Oc3ccccc3)cc2)(C(=O)NO)CC1`, the pKi is 8.35 in test [4]; 6.38 in test [1] (pH 7.5, 25 °C); 7.46 in test [2]; 9.26 in test [6]; 9.60 in test [5].
`O=C(NO)C1(S(=O)(=O)c2ccc(Oc3ccccc3)cc2)CCN(CC2CC2)CC1` [1-(Cyclopropylmethyl)-N-hydroxy-4-[(4-phenoxyphenyl)sulfonyl]piperidine-4-carboxamide Hydrochloride]: the pKi in test [1] (pH 7.5, 25 °C) is 6.11; in test [6] it was above 10.00; in test [5], above 10.00.
Take `CC(=O)N1CCC(C(=O)NO)(S(=O)(=O)c2ccc(Oc3ccccc3)cc2)CC1` [1-Acetyl-N-hydroxy-4-{[4-(phenoxyphenyl]sulfonyl}-piperidine-4-carboxamide]: the pKi was 6.33 in test [1] and above 10.00 in test [6].
As to `O=C(NO)C1(S(=O)(=O)c2ccc(Sc3ccccc3)cc2)CCN(C2CC2)CC1` [1-Cyclopropyl-N-hydroxy-4-{[4-(phenylthio)phenyl]-sulfonyl}piperidine-4-carboxamide Hydrochloride], the pKi is 8.60 in test [4]; below 5.00 in test [1]; 7.63 in test [2]; 9.70 in test [6]; 10.00 in test [5]; 8.46 in test [3].
As for `CC(=O)N1CCC(C(=O)NO)(S(=O)(=O)c2ccc(Sc3ccccc3)cc2)CC1` [1-acetyl-N-hydroxy-4-{[4-(phenylsulfanyl)benzene]sulfonyl}piperidine-4-carboxamide], the negative logarithm of the Ki (pKi) in test [4] is 8.10; in test [1], 5.14; in test [2], 7.64; in test [6] it was 9.22; in test [5], 9.40; in test [3], 8.30.
For the compound `O=C(NO)C1(S(=O)(=O)c2ccc(Oc3ccccc3)cc2)CCN(C2CC2)CC1` [1-cyclopropyl-N-hydroxy-4-[(4-phenoxybenzene)sulfonyl]piperidine-4-carboxamide hydrochloride], the pKi in test [4] is 9.22; in test [2] it was 9.52; in test [5], 9.70.
As for `CCN1CCC(C(=O)NO)(S(=O)(=O)c2ccc(Sc3ccccc3)cc2)CC1` [1-ethyl-N-hydroxy-4-{[4-(phenylsulfanyl)benzene]sulfonyl}piperidine-4-carboxamide hydrochloride], the values for the pKi in test [1], in test [6] and in test [5] were below 5.00, 9.10 and 9.10, respectively.
As to `C#CCN1CCC(CS(=O)(=O)c2ccc(Oc3ccc(C)c(C)c3)cc2)(C(=O)NO)CC1` [4-({[4-(3,4-Dimethylphenoxy)phenyl]sulfonyl}methyl)-N-hydroxy-1-prop-2-ynylpiperidine-4-carboxamide Hydrochloride], the pKi is 8.15 in test [4], 7.74 in test [2], 9.10 in test [6] and 9.05 in test [5].
For the compound `O=C(NO)C1(S(=O)(=O)c2ccc(Oc3ccc(Cl)cc3)cc2)CCOCC1` [4-{[4-(4-chlorophenoxy)benzene]sulfonyl}-N-hydroxyoxane-4-carboxamide], the pKi in test [2] was 7.74; in test [5] it was above 10.00.
In the case of `CN1CCC(C(=O)NO)(S(=O)(=O)c2ccc(Sc3ccccc3)cc2)CC1` [N-Hydroxy-1-methyl-4-{[4-(phenylthio)phenyl]sulfonyl}-piperidine-4-carboxamide Hydrochloride], the pKi in test [4] was 8.03; in test [1], below 5.00; in test [2], 7.41; in test [6], 9.17; in test [5] it was 9.30.
`C#CCN1CCC(C(=O)NO)(S(=O)(=O)c2ccc(Oc3ccccc3)cc2)CC1` [N-Hydroxy-4-{[4-(phenoxyphenyl]sulfonyl}-1-(2-propynyl)4-piperidinecarboxamide, Monohydrochloride]: the pKi in test [4] is 9.40; in test [1] (pH 7.5, 25 °C) it was 6.56; in test [2], 7.90; in test [6], 9.66; in test [5], 9.89.
On the same counts, the results for `COCCN1CCC(C(=O)NO)(S(=O)(=O)c2ccc(Oc3ccccc3)cc2)CC1` [N-hydroxy-1-(2-methoxyethyl)-4-[(4-phenoxybenzene)sulfonyl]piperidine-4-carboxamide hydrochloride] are 9.15, 6.46, 9.52, 10.00 and 10.00.
Take `COCCN1CCC(C(=O)NO)(S(=O)(=O)c2ccc(Sc3ccccc3)cc2)CC1` [N-hydroxy-1-(2-methoxyethyl)-4-{[4-(phenylsulfanyl)benzene]sulfonyl}piperidine-4-carboxamide hydrochloride]: the pKi in test [4] was 8.52; in test [1], below 5.00; in test [2], 7.70; in test [6] it was 9.30; in test [5] it was 9.52; in test [3], 8.40.
For the compound `COc1cccc(CN2CCC(CS(=O)(=O)c3ccc(Oc4ccccc4)cc3)(C(=O)NO)CC2)c1` [N-hydroxy-1-[(3-methoxyphenyl)methyl]-4-{[(4-phenoxybenzene)sulfonyl]methyl}piperidine-4-carboxamide hydrochloride], the pKi was 8.96 in test [4]; 6.48 in test [1] (pH 7.5, 25 °C); 7.74 in test [2]; 9.40 in test [6]; 9.70 in test [5].
For `CS(=O)(=O)N1CCC(C(=O)NO)(S(=O)(=O)c2ccc(Oc3ccccc3)cc2)CC1` [N-hydroxy-1-methanesulfonyl-4-[(4-phenoxybenzene)sulfonyl]piperidine-4-carboxamide], the pKi was 9.00 in test [4], 6.10 in test [1], 9.30 in test [6] and 9.52 in test [5].
Regarding `CS(=O)(=O)N1CCC(C(=O)NO)(S(=O)(=O)c2ccc(Sc3ccccc3)cc2)CC1` [N-hydroxy-1-methanesulfonyl-4-{[4-(phenylsulfanyl)benzene]sulfonyl}piperidine-4-carboxamide], the pKi is 7.83 in test [4]; below 5.00 in test [1]; 7.49 in test [2]; 8.59 in test [6]; 8.70 in test [5]; 8.40 in test [3].
On to `CN1CCC(C(=O)NO)(S(=O)(=O)c2ccc(Oc3ccccc3)cc2)CC1` [N-hydroxy-1-methyl-4-[(4-phenoxybenzene)sulfonyl]piperidine-4-carboxamide hydrochloride], for which the pKi was 9.54 in test [4]; 6.33 in test [1] (pH 7.5, 25 °C); 10.00 in test [6]; above 10.00 in test [5].
Regarding `O=C(CS(=O)(=O)c1ccc(Oc2ccccc2)cc1)NO` [N-hydroxy-2-[(4-phenoxybenzene)sulfonyl]acetamide], the figures for the pKi in test [1], in test [6] and in test [5] were 5.18, 8.29 and 8.59, respectively.
On the same counts, the results for `CC(C)(C(=O)NO)S(=O)(=O)c1ccc(Oc2ccccc2)cc1` [N-hydroxy-2-methyl-2-[(4-phenoxybenzene)sulfonyl]propanamide] are 6.66, 9.60 and 10.00.
For `C=CCN1CCC(C(=O)NO)(S(=O)(=O)c2ccc(Sc3ccccc3)cc2)CC1` [N-hydroxy-4-{[4-(phenylsulfanyl)benzene]sulfonyl}-1-(prop-2-en-1-yl)piperidine-4-carboxamide hydrochloride], in that order: below 5.00, 9.52 and 9.82.
Regarding `C#CCN1CCC(C(=O)NO)(S(=O)(=O)c2ccc(Sc3ccccc3)cc2)CC1` [N-hydroxy-4-{[4-(phenylsulfanyl)benzene]sulfonyl}-1-(prop-2-yn-1-yl)piperidine-4-carboxamide hydrochloride], the pKi in test [1] is 5.06; in test [2], 7.89; in test [5] it was 9.48; in test [3] it was 8.74.
Regarding `CC(C)(C)OC(=O)N1CCC(CS(=O)(=O)c2ccc(Oc3ccccc3)cc2)(C(=O)NO)CC1` [tert-Butyl 4-[(Hydroxyamino)carbonyl]-4-{[(4-phenoxyphenyl)sulfonyl]methyl}piperidine-1-carboxylate], the pKi in test [1] (pH 7.5, 25 °C) is 6.32; in test [6], 9.70; in test [5] it was 9.70.
Take `CC(C)(C)OC(=O)N1CCC(C(=O)NO)(S(=O)(=O)c2ccc(Oc3ccccc3)cc2)CC1` [tert-butyl 4-(hydroxycarbamoyl)-4-[(4-phenoxybenzene)sulfonyl]piperidine-1-carboxylate]: the pKi in test [1] (pH 7.5, 25 °C) is 5.94; in test [6], 9.52; in test [5], 9.70.

Source of the values: BindingDB's records for doi:10.1021/jm0500875 (Pfizer, 2005).
